In the NIST ThermoML archive (doi:10.1016/j.fluid.2015.06.045):
Where “and” joins values, the source holds several entries; their conditions need not be identical. Identical values can stand only once.

Key:
[1] = Liquid, Closed cell (Static) method
[2] = molar heat capacity at constant pressure

CN1CCCC1=O [N-methylpyrrolidone]
[1]
Details | vapor or sublimation pressure
273.65 K | 0.00631 kPa and 0.0063 kPa
278.15 K | 0.0094 kPa and 0.00937 kPa and 0.00938 kPa
283.15 K | 0.01432 kPa
288.15 K | 0.02159 kPa and 0.02162 kPa
293.15 K | 0.03193 kPa and 0.03195 kPa and 0.03196 kPa
298.15 K | 0.04664 kPa and 0.04665 kPa and 0.0466 kPa
303.15 K | 0.06708 kPa and 0.06709 kPa
308.15 K | 0.09518 kPa and 0.09516 kPa
308.17 K | 0.0951 kPa

[2], 100 kPa, Ideal gas
Details | molar heat capacity at constant pressure [J/K/mol]
100 K | 59.31
150 K | 72.28
200 K | 85.04
250 K | 99.6
273.15 K | 106.98
298.15 K | 115.26
300 K | 115.89
400 K | 149.87
500 K | 180.98
600 K | 207.43
700 K | 229.6
800 K | 248.26
900 K | 264.08
1000 K | 277.55

[2], 101.33 kPa, Liquid, Large sample (1 g) DSC
Details | molar heat capacity at constant pressure
265.75 K | 168.2 J/K/mol and 168.12 J/K/mol
270.85 K | 169.2 J/K/mol and 169.03 J/K/mol
275.96 K | 169.62 J/K/mol and 169.86 J/K/mol
281.07 K | 170.95 J/K/mol and 170.78 J/K/mol
286.17 K | 171.86 J/K/mol
291.28 K | 173.36 J/K/mol and 172.86 J/K/mol
296.38 K | 173.94 J/K/mol and 174.27 J/K/mol
301.49 K | 175.35 J/K/mol and 175.52 J/K/mol
306.59 K | 176.52 J/K/mol
311.69 K | 177.93 J/K/mol and 177.85 J/K/mol
316.8 K | 178.93 J/K/mol and 179.09 J/K/mol
321.9 K | 180.01 J/K/mol and 180.42 J/K/mol
327.01 K | 181.84 J/K/mol and 181.75 J/K/mol
332.12 K | 183.25 J/K/mol
337.22 K | 184.41 J/K/mol and 184.66 J/K/mol
342.33 K | 185.75 J/K/mol and 186.16 J/K/mol
347.43 K | 187.24 J/K/mol
352.54 K | 188.57 J/K/mol and 188.82 J/K/mol
